Assay results from ChEMBL document CHEMBL3885861, “Open TG-GATES”.

Organism: Rattus norvegicus
Assay: Open TG-GATES - Regimen: Daily Repeat
Format: toxicity, organism-based, Sprague-Dawley
Set-up: regimen Daily Repeat, gender Male, age 6 weeks
Settings: in vivo, po, 250 mg/kg, route gavage, dose level Middle; for APTT / Bas / Eos / Fbg / Hb / Ht / Lym / MCH / MCHC / MCV / Mono / Neu / PT / Plat / RBC / Ret / WBC: tissue Blood; for KIDNEY_L / KIDNEY_R / KIDNEY_TOTAL: tissue Kidney; for LIVER: tissue Liver; for A/G / ALP / ALT / AST / BUN / CRE / Ca / Cl / DBIL / GLC / IP / K / LDH / Na / PL / RALB / TBIL / TC / TG / TP / gamma-GTP: tissue Plasma

## CN(C/C=C/C#CC(C)(C)C)Cc1cccc2ccccc12 [TERBINAFINE]
72 h, time 3 day
  TERMINAL_BW: 237.2 g
  APTT: 17.7 s
  Bas: 1%
  Eos: 1%
  Fbg: 223.6 mg/dL
  Hb: 13.6 g/dL
  Ht: 40.4%
  Lym: 77.2%
  MCH: 21.7 pg
  MCHC: 33.7%
  MCV: 64.4 fL
  Mono: 3.4%
  Neu: 18%
  PT: 11.6 s
  Plat: 122 x10_4/uL
  RBC: 628.6 x10_4/ul
  Ret: 5.9%
  WBC: 115.2 x10_2/uL
  KIDNEY_L: 1.1 g
  KIDNEY_R: 1.1 g
  KIDNEY_TOTAL: 2.2 g
  LIVER: 12.2 g
  A/G: 1.7
  ALP: 954.4 IU/L
  ALT: 39.8 IU/L
  AST: 71.4 IU/L
  BUN: 14.8 mg/dL
  CRE: 0.4 mg/dL
  Ca: 10.5 mg/dL
  Cl: 103 meq/L
  DBIL: 0.078 mg/dL
  GLC: 189 mg/dL
  IP: 7.5 mg/dL
  K: 4 meq/L
  LDH: 197 IU/L
  Na: 141.4 meq/L
  PL: 141.2 mg/dL
  RALB: 3.5 g/dL
  TBIL: 0.1 mg/dL
  TC: 78.6 mg/dL
  TG: 65.6 mg/dL
  TP: 5.5 g/dL
  gamma-GTP: 1.4 IU/L
[…], time 7 day
  TERMINAL_BW: 268.6 g
  APTT: 21.6 s
  Bas: 1%
  Eos: 0.6%
  Fbg: 206 mg/dL
  Hb: 13.7 g/dL
  Ht: 39.7%
  Lym: 81.6%
  MCH: 20.8 pg
  MCHC: 34.6%
  MCV: 60.2 fL
  Mono: 2.4%
  Neu: 13.8%
  PT: 12.2 s
  Plat: 134.5 x10_4/uL
  RBC: 660 x10_4/ul
  Ret: 4.1%
  WBC: 128 x10_2/uL
  KIDNEY_L: 1.3 g
  KIDNEY_R: 1.2 g
  KIDNEY_TOTAL: 2.5 g
  LIVER: 13.7 g
  A/G: 1.6
  ALP: 738.6 IU/L
  ALT: 37.6 IU/L
  AST: 70.4 IU/L
  BUN: 13.6 mg/dL
  CRE: 0.4 mg/dL
  Ca: 10.4 mg/dL
  Cl: 103.6 meq/L
  DBIL: 0.07 mg/dL
  GLC: 192 mg/dL
  IP: 7.4 mg/dL
  K: 4 meq/L
  LDH: 188.8 IU/L
  Na: 142.6 meq/L
  PL: 123.6 mg/dL
  RALB: 3.6 g/dL
  TBIL: 0.1 mg/dL
  TC: 65.2 mg/dL
  TG: 53.8 mg/dL
  TP: 5.8 g/dL
  gamma-GTP: 1 IU/L
[…], time 14 day
  TERMINAL_BW: 323.9 g
  APTT: 19.5 s
  Bas: 1%
  Eos: 1%
  Fbg: 219.6 mg/dL
  Hb: 14.1 g/dL
  Ht: 41.7%
  Lym: 82.4%
  MCH: 19.9 pg
  MCHC: 33.8%
  MCV: 58.8 fL
  Mono: 2.8%
  Neu: 13%
  PT: 11.6 s
  Plat: 124.9 x10_4/uL
  RBC: 710 x10_4/ul
  Ret: 4.3%
  WBC: 135.6 x10_2/uL
  KIDNEY_L: 1.4 g
  KIDNEY_R: 1.4 g
  KIDNEY_TOTAL: 2.8 g
  LIVER: 16.3 g
  A/G: 1.5
  ALP: 690 IU/L
  ALT: 34 IU/L
  AST: 62.8 IU/L
  BUN: 14.2 mg/dL
  CRE: 0.4 mg/dL
  Ca: 10.6 mg/dL
  Cl: 103.6 meq/L
  DBIL: 0.088 mg/dL
  GLC: 196.4 mg/dL
  IP: 8 mg/dL
  K: 3.8 meq/L
  LDH: 155.2 IU/L
  Na: 142.2 meq/L
  PL: 128 mg/dL
  RALB: 3.6 g/dL
  TBIL: 0.1 mg/dL
  TC: 68 mg/dL
  TG: 79.8 mg/dL
  TP: 5.9 g/dL
  gamma-GTP: 1 IU/L
[…], time 28 day
  TERMINAL_BW: 411.4 g
  APTT: 22 s
  Bas: 1%
  Eos: 1.2%
  Fbg: 223.8 mg/dL
  Hb: 14.5 g/dL
  Ht: 41.4%
  Lym: 81%
  MCH: 20 pg
  MCHC: 35%
  MCV: 57.1 fL
  Mono: 2.2%
  Neu: 14.8%
  PT: 12.2 s
  Plat: 121.1 x10_4/uL
  RBC: 725.4 x10_4/ul
  Ret: 3.1%
  WBC: 136.2 x10_2/uL
  KIDNEY_L: 1.7 g
  KIDNEY_R: 1.7 g
  KIDNEY_TOTAL: 3.4 g
  LIVER: 20.2 g
  A/G: 1.3
  ALP: 565.8 IU/L
  ALT: 34 IU/L
  AST: 61.2 IU/L
  BUN: 18.2 mg/dL
  CRE: 0.5 mg/dL
  Ca: 10.4 mg/dL
  Cl: 103.6 meq/L
  DBIL: 0.088 mg/dL
  GLC: 229.6 mg/dL
  IP: 7.1 mg/dL
  K: 4 meq/L
  LDH: 167.4 IU/L
  Na: 141.4 meq/L
  PL: 134 mg/dL
  RALB: 3.5 g/dL
  TBIL: 0.2 mg/dL
  TC: 72 mg/dL
  TG: 69.4 mg/dL
  TP: 6.1 g/dL
  gamma-GTP: 1.4 IU/L
